From patent US10287300B2 (Merck Patent GmbH, priority 2012, dated 2019) come the findings set out here.

In assay [1] the target is P70S6K (T412E mutant, Millipore) (Homo sapiens (Human), UniProt P23443, T412E). Description: P70S6K enzyme assay. The format is biochemical. Conditions: 24 μM ATP, 90 min at 25° C.
Assay [2] concerns the target His-AKT (Full Length) (Homo sapiens (Human), UniProt P31749). Briefly: AKT enzyme assay. The format is biochemical. Conditions: 160 uM ATP, 90 min at 25° C.

The structures appear in SMILES notation.

P70S6K (T412E mutant, Millipore), sequence (P23443 whole entry T412E): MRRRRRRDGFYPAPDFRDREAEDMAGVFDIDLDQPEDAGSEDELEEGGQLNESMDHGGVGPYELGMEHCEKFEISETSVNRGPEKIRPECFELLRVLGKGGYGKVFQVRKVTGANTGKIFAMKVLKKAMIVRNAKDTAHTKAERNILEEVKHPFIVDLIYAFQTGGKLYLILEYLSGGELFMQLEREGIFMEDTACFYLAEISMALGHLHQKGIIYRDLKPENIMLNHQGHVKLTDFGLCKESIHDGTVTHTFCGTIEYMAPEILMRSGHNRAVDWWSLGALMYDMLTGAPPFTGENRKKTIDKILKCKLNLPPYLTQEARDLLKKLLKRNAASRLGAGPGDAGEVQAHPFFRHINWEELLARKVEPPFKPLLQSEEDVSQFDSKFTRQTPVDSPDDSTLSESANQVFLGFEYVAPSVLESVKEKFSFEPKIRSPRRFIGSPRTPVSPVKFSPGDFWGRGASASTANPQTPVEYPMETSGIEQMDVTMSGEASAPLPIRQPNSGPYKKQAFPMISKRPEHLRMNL
His-AKT (Full Length), sequence (P31749 whole entry): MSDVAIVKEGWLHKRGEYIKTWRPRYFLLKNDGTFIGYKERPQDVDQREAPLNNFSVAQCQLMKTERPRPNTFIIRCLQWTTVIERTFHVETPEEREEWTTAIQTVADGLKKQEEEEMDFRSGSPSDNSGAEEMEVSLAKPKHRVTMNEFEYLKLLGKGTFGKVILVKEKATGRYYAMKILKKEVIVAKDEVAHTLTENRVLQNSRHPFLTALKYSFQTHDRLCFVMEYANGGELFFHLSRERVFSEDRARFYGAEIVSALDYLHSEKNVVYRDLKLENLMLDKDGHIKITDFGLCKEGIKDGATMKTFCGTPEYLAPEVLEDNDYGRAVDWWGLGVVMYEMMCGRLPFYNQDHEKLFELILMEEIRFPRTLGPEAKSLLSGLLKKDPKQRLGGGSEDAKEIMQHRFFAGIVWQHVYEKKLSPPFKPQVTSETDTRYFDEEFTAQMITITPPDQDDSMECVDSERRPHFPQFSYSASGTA

As to `O=C1CNc2ncnc(N3CCN(C(CN4CCCCC4)c4ccc(Cl)c(F)c4)CC3)c2N1` (centres unmarked) [Compound A62, 4-(4-(1-(4-chloro-3-fluorophenyl)-2-(piperidin-1-yl)ethyl)piperazin-1-yl)-7,8-dihydropteridin-6(5H)-one], the 50% inhibitory concentration (IC50) was more than 1 µM in assay [1] and 0.501 to 1 µM in assay [2].
`CN(C)CCNCC(c1ccc(C(F)(F)F)cc1)N1CCN(c2ncnc3c2NC(=O)CN3)CC1` (centres unmarked) [Compound A63, 4-(4-(2((2-(dimethylamino)ethyl)amino)-1-(4-(trifluoromethyl)phenyl)-ethyl)piperazin-1-yl)-7,8-dihydropteridin-6(5H)-one]: the IC50 in assay [1] and in assay [2] was more than 1 µM throughout.
For `CN(C)CCNCC(c1cccc(C(F)(F)F)c1)N1CCN(c2ncnc3c2NC(=O)CN3)CC1` (centres unmarked) [Compound A64, 4-(4-(2-((2-(dimethylamino)ethyl)amino)-1-(3-(trifluoromethyl)phenyl)-ethyl)piperazin-1-yl)-7,8-dihydropteridin-6(5H)-one], the IC50 in assay [1] and in assay [2] was more than 1 µM throughout.
`Cc1ccc(C(CNCCN(C)C)N2CCN(c3ncnc4c3NC(=O)CN4)CC2)cc1` (centres unmarked) [Compound A65, 4-(4-(2-((2-(dimethylamino)ethyl)amino)-1-(p-tolyl)ethyl)piperazin-1-yl)-7,8-dihydropteridin-6(5H)-one]: the half-maximal inhibitory concentration (IC50) in assay [1] and in assay [2] was more than 1 µM throughout.
